Test results published in PubChem BioAssay AID1963976 (Molecular Pharmacology Branch, DTP, NCI, 2024).

System: 435261-313-R-J1-PDC tumor spheroid viability
Assay: Anticancer human tumor 435261-313-R-J1-PDC patient-derived colon adenocarcinoma cell line growth inhibition [PI3K]
Details: spheroids with HUVEC and MSC; for IC50: curve of first compound; for viability, T/C: stronger effect = lower value; active = viability on the fitted dose curve at most 10% of control; inactive = the rest
Outline: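 We assembled tumor spheroids that included a stromal compartment of HUVEC and MSCs, then exposed them to targeted agents alone and together with PI3K pathway inhibitors. Concentration series descended by half-log from clinically achievable Cmax levels. Viability served as the endpoint.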

[1] = second compound 0.0316 µM, first compound 0.0316 µM
[2] = second compound 0.0316 µM, first compound 0.1 µM
[3] = second compound 0.0316 µM, first compound 0.316 µM
[4] = second compound 0.0316 µM, first compound 1 µM
[5] = second compound 0.0316 µM, first compound 3.16 µM
[6] = second compound 0.0316 µM, first compound 10 µM
[7] = second compound 0.1 µM, first compound 0.0316 µM
[8] = second compound 0.1 µM, first compound 0.1 µM
[9] = second compound 0.1 µM, first compound 0.316 µM
[10] = second compound 0.1 µM, first compound 1 µM
[11] = second compound 0.1 µM, first compound 3.16 µM
[12] = second compound 0.1 µM, first compound 10 µM
[13] = second compound 0.316 µM, first compound 0.0316 µM
[14] = second compound 0.316 µM, first compound 0.1 µM
[15] = second compound 0.316 µM, first compound 0.316 µM
[16] = second compound 0.316 µM, first compound 1 µM
[17] = second compound 0.316 µM, first compound 3.16 µM
[18] = second compound 0.316 µM, first compound 10 µM
[19] = second compound 1 µM, first compound 0.0316 µM
[20] = second compound 1 µM, first compound 0.1 µM
[21] = second compound 1 µM, first compound 0.316 µM
[22] = second compound 1 µM, first compound 1 µM
[23] = second compound 1 µM, first compound 3.16 µM
[24] = second compound 1 µM, first compound 10 µM
[25] = second compound 3.16 µM, first compound 0.0316 µM
[26] = second compound 3.16 µM, first compound 0.1 µM
[27] = second compound 10 µM, first compound 0.0316 µM
[28] = second compound 10 µM, first compound 0.1 µM

CC1(C)CCC(Nc2ncc(C(F)(F)F)c(-c3c[nH]c4c(P(C)(C)=O)c(C#N)ccc34)n2)CN1 (stereo unspecified) + COc1c(OCCCN2CCOCC2)ccc2c3n(c(=NC(=O)c4cnc(N)nc4)nc12)CCN3
31.6 nM: IC50 (second compound 0.01 µM)
3170 nM: IC50 (second compound 0.00316 µM)
active: viability, T/C (second compound 0.00316 µM, first compound 10 µM) 0.44% | viability, T/C (second compound 0.01 µM, first compound 10 µM) 0.48% | viability, T/C [6] 0.35% | viability, T/C [11] 7.14% | viability, T/C [12] 0.28% | viability, T/C [13] 7.08% | viability, T/C [14] 6.11% | viability, T/C [15] 5.71% | viability, T/C [16] 5.56% | viability, T/C [17] 2.4% | viability, T/C [18] 0.23% | viability, T/C [19] 3.57% | viability, T/C [20] 2.68% | viability, T/C [21] 3.18% | viability, T/C [22] 2.83% | viability, T/C [23] 1.6% | viability, T/C [24] 0.23%
< 31.6 nM: IC50 (second compound 0.0316 µM) | IC50 (second compound 0.1 µM) | IC50 (second compound 0.316 µM) | IC50 (second compound 1 µM)
inactive: viability, T/C (second compound 0.00316 µM, first compound 0.0316 µM) 56.2% | viability, T/C (second compound 0.00316 µM, first compound 0.1 µM) 58.8% | viability, T/C (second compound 0.00316 µM, first compound 0.316 µM) 54.5% | viability, T/C (second compound 0.00316 µM, first compound 1 µM) 57.2% | viability, T/C (second compound 0.00316 µM, first compound 3.16 µM) 50.1% | viability, T/C (second compound 0.01 µM, first compound 0.0316 µM) 42.3% | viability, T/C (second compound 0.01 µM, first compound 0.1 µM) 43.9% | viability, T/C (second compound 0.01 µM, first compound 0.316 µM) 49.2% | viability, T/C (second compound 0.01 µM, first compound 1 µM) 47.7% | viability, T/C (second compound 0.01 µM, first compound 3.16 µM) 58.8% | viability, T/C [1] 31.6% | viability, T/C [2] 32.6% | viability, T/C [3] 33.7% | viability, T/C [4] 30.9% | viability, T/C [5] 21.5% | viability, T/C [7] 17.8% | viability, T/C [8] 16.8% | viability, T/C [9] 15.5% | viability, T/C [10] 18.6%

CC(=O)c1c(C)c2cnc(Nc3ccc(N4CCNCC4)cn3)nc2n(C2CCCC2)c1=O + Cc1nc(NC(=O)N2CCCC2C(N)=O)sc1-c1ccnc(C(C)(C)C(F)(F)F)c1
> 100 nM: IC50 (second compound 0.0316 µM) | IC50 (second compound 0.1 µM)
inactive: viability, T/C (second compound 0.0316 µM, first compound 0.000316 µM) 61.5% | viability, T/C (second compound 0.0316 µM, first compound 0.001 µM) 91.9% | viability, T/C (second compound 0.0316 µM, first compound 0.00316 µM) 96.5% | viability, T/C (second compound 0.0316 µM, first compound 0.01 µM) 66% | viability, T/C [1] 88.5% | viability, T/C [2] 59.1% | viability, T/C (second compound 0.1 µM, first compound 0.000316 µM) 68% | viability, T/C (second compound 0.1 µM, first compound 0.001 µM) 69.4% | viability, T/C (second compound 0.1 µM, first compound 0.00316 µM) 69.5% | viability, T/C (second compound 0.1 µM, first compound 0.01 µM) 69.5% | viability, T/C [7] 74.7% | viability, T/C [8] 66.1% | viability, T/C (second compound 0.316 µM, first compound 0.000316 µM) 40.9% | viability, T/C (second compound 0.316 µM, first compound 0.001 µM) 60.9% | viability, T/C (second compound 0.316 µM, first compound 0.00316 µM) 40.9% | viability, T/C (second compound 0.316 µM, first compound 0.01 µM) 52.5% | viability, T/C [13] 41.3% | viability, T/C [14] 32.5% | viability, T/C (second compound 1 µM, first compound 0.000316 µM) 26.9% | viability, T/C (second compound 1 µM, first compound 0.001 µM) 27.5% | viability, T/C (second compound 1 µM, first compound 0.00316 µM) 35.2% | viability, T/C (second compound 1 µM, first compound 0.01 µM) 33.5% | viability, T/C [19] 26.6% | viability, T/C [20] 21.2% | viability, T/C (second compound 3.16 µM, first compound 0.000316 µM) 14.7% | viability, T/C (second compound 3.16 µM, first compound 0.001 µM) 14.2% | viability, T/C (second compound 3.16 µM, first compound 0.00316 µM) 13.9% | viability, T/C (second compound 3.16 µM, first compound 0.01 µM) 16.8% | viability, T/C [25] 16.9% | viability, T/C [26] 15.9% | viability, T/C (second compound 10 µM, first compound 0.000316 µM) 10.2%
active: viability, T/C (second compound 10 µM, first compound 0.001 µM) 7.93% | viability, T/C (second compound 10 µM, first compound 0.00316 µM) 7.66% | viability, T/C (second compound 10 µM, first compound 0.01 µM) 9.02% | viability, T/C [27] 10.4% | viability, T/C [28] 5.66%
< 0.316 nM: IC50 (second compound 1 µM) | IC50 (second compound 3.16 µM) | IC50 (second compound 10 µM)
0.316 nM: IC50 (second compound 0.316 µM)

CNC(=O)c1ccc(N2C(=S)N(c3ccc(C#N)c(C(F)(F)F)c3)C(=O)C2(C)C)cc1F + Cc1nc(NC(=O)N2CCCC2C(N)=O)sc1-c1ccnc(C(C)(C)C(F)(F)F)c1
< 31.6 nM: IC50 (second compound 0.316 µM) | IC50 (second compound 1 µM) | IC50 (second compound 3.16 µM) | IC50 (second compound 10 µM)
active: viability, T/C [27] 9.39% | viability, T/C [28] 8.74% | viability, T/C (second compound 10 µM, first compound 0.316 µM) 8.22% | viability, T/C (second compound 10 µM, first compound 1 µM) 8.91% | viability, T/C (second compound 10 µM, first compound 3.16 µM) 8.18% | viability, T/C (second compound 10 µM, first compound 10 µM) 5.56%
> 10000 nM: IC50 (second compound 0.0316 µM) | IC50 (second compound 0.1 µM)
inactive: viability, T/C [1] 81.8% | viability, T/C [2] 78.2% | viability, T/C [3] 103% | viability, T/C [4] 75% | viability, T/C [5] 93.5% | viability, T/C [6] 84.2% | viability, T/C [7] 70.8% | viability, T/C [8] 52.1% | viability, T/C [9] 71.5% | viability, T/C [10] 61.4% | viability, T/C [11] 83.7% | viability, T/C [12] 77.1% | viability, T/C [13] 27.3% | viability, T/C [14] 59.3% | viability, T/C [15] 46.2% | viability, T/C [16] 61.7% | viability, T/C [17] 75.8% | viability, T/C [18] 45.7% | viability, T/C [19] 26.3% | viability, T/C [20] 30.4% | viability, T/C [21] 24.8% | viability, T/C [22] 37.4% | viability, T/C [23] 23.9% | viability, T/C [24] 25.1% | viability, T/C [25] 18.9% | viability, T/C [26] 17.4% | viability, T/C (second compound 3.16 µM, first compound 0.316 µM) 12.7% | viability, T/C (second compound 3.16 µM, first compound 1 µM) 17.8% | viability, T/C (second compound 3.16 µM, first compound 3.16 µM) 14% | viability, T/C (second compound 3.16 µM, first compound 10 µM) 9.85%
